Test results taken from ChEMBL document CHEMBL2413045, “Synthesis, self-aggregation and biological properties of alkylphosphocholine and alkylphosphohomocholine derivatives of cetyltrimethylammonium bromide, cetylpyridinium bromide, benzalkonium bromide (C16) and benzethonium chloride” (Eur J Med Chem, 2013).
pIC50: −log10 of the molar value. Values after ≈ are worked out from the molar mass of the structure shown.

Columns and labels:
HeLa = experiment: Cytotoxicity against human HeLa cells after 72 hrs by MTT assay; type: functional, cell-based
Acanthamoeba lugdunensis [1] = experiment: Amoebicidal activity against Acanthamoeba lugdunensis clinical isolate AcaVNAK02 assessed as minimum trophocidal concentration after 48 hrs by trypan blue exclusion assay; type: functional; details: clinical isolate AcaVNAK02, 48 h
Acanthamoeba quina [2] = experiment: Amoebicidal activity against Acanthamoeba quina clinical isolate AcaVNAK03 assessed as minimum trophocidal concentration after 48 hrs by trypan blue exclusion assay; type: functional; details: clinical isolate AcaVNAK03, 48 h
HUVEC = experiment: Cytotoxicity against HUVEC after 72 hrs by MTT assay; type: ADME, cell-based; details: Homo sapiens
Candida albicans [3] = experiment: microbe, parasite or virus in culture; type: functional; details: ATCC 60193, 48 h
Description: (§1) Antimycotic activity against Candida albicans ATCC 60193 after 48 hrs by NCCLS M-27 microdilution assay

A549 [4] = experiment: Cytotoxicity against human A549 cells after 72 hrs by MTT assay; type: functional, cell-based; details: A549, 72 h
CCRF-CEM = experiment: Cytotoxicity against human CCRF-CEM cells after 72 hrs by MTT assay; type: functional, cell-based
MCF7 [5] = experiment: Cytotoxicity against human MCF7 cells after 72 hrs by MTT assay; type: functional, cell-based; details: MCF7, 72 h
MCF7 [6] = experiment: Selectivity index, ratio of IC50 for HUVEC to IC50 for human MCF7 cells
MDA-MB-231 = experiment: Cytotoxicity against human MDA-MB-231 cells after 72 hrs by MTT assay; type: functional, cell-based; details: MDA-MB-231, 72 h
Acanthamoeba lugdunensis [7] = details: clinical isolate AcaVNAK02
Candida albicans [8] = details: ATCC 60193
Description: as §1

Acanthamoeba quina [9] = details: clinical isolate AcaVNAK03
A549 [10] = experiment: Selectivity index, ratio of IC50 for HUVEC to IC50 for human A549 cells
Candida albicans [11] = experiment: Ratio of cetylpyridinium bromide MIC to compound MIC for Candida albicans ATCC 60193; type: functional

Compound: CCCCCCCCCCCCCCCCOP(=O)([O-])OCC[n+]1ccccc1
- pIC50 (HeLa): 4.28
- MTC (Acanthamoeba lugdunensis [1]): 62.5 µM
- MTC (Acanthamoeba quina [2]): 62.5 µM
- pIC50 (HUVEC): 4.03
- MIC (Candida albicans [3]): 4 µM (≈ 1.71 µg/mL)
- pIC50 (A549 [4]): 5.00
- pIC50 (CCRF-CEM): 4.64
- pIC50 (MCF7 [5]): 5.09
- Ratio IC50 (MCF7 [6]): >10
- pIC50 (MDA-MB-231): 4.34

Compound: CCCCCCCCCCCCCCCCOP(=O)([O-])OCCC[n+]1ccccc1
- pIC50 (HeLa): 4.13
- MTC (Acanthamoeba lugdunensis [1]): 250 µM
- MTC (Acanthamoeba quina [2]): 15.6 µM
- pIC50 (HUVEC): < 4.00
- MIC (Candida albicans [3]): 2.1 µM (≈ 0.927 µg/mL)
- pIC50 (A549 [4]): 4.21
- pIC50 (CCRF-CEM): 4.46
- pIC50 (MCF7 [5]): 4.30
- pIC50 (MDA-MB-231): 4.22

Compound: CCCCCCCCCCCCCCCCOP(=O)([O-])OCCC[N+](C)(C)C
- pIC50 (HeLa): 4.07
- MTC (Acanthamoeba lugdunensis [1]): 125 µM
- MTC (Acanthamoeba quina [2]): 62.5 µM
- pIC50 (HUVEC): < 4.00
- MIC (Candida albicans [3]): 18.2 µM (≈ 7.67 µg/mL)
- pIC50 (A549 [4]): 4.38
- pIC50 (CCRF-CEM): 5.21
- pIC50 (MCF7 [5]): 4.34
- pIC50 (MDA-MB-231): 4.21

Compound: CC(C)(C)CC(C)(C)c1ccc(OCCOP(=O)([O-])OCC[N+](C)(C)Cc2ccccc2)cc1
- pIC50 (HeLa): < 4.00
- MTC (Acanthamoeba lugdunensis [1]): 250 µM
- MTC (Acanthamoeba quina [2]): 500 µM
- pIC50 (HUVEC): < 4.00
- MIC (Candida albicans [3]): > 100 µM
- pIC50 (A549 [4]): < 4.00
- pIC50 (CCRF-CEM): < 4.00
- pIC50 (MCF7 [5]): < 4.00
- pIC50 (MDA-MB-231): < 4.00

Compound: Cetyltrimethylammonium bromide
- MIC (Acanthamoeba lugdunensis [7]): 15.6 µM
- MIC (Candida albicans [8]): 22 µM
- MIC (Acanthamoeba quina [9]): 15.6 µM

Compound: CCCCCCCCCCCCCCCCOP(=O)([O-])OCC[N+](C)(C)Cc1ccccc1
- pIC50 (HeLa): 4.25
- MTC (Acanthamoeba lugdunensis [1]): > 500 µM
- MTC (Acanthamoeba quina [2]): > 500 µM
- pIC50 (HUVEC): < 4.00
- MIC (Candida albicans [3]): 8.1 µM (≈ 3.92 µg/mL)
- pIC50 (A549 [4]): 4.14
- pIC50 (CCRF-CEM): 4.86
- pIC50 (MCF7 [5]): 4.12
- pIC50 (MDA-MB-231): 4.35

Compound: CCCCCCCCCCCCCCCCOP(=O)([O-])OCC[N+](C)(C)C [MILTEFOSINE]
- pIC50 (HeLa): 4.13
- MTC (Acanthamoeba lugdunensis [1]): 250 µM
- MTC (Acanthamoeba quina [2]): 125 µM
- pIC50 (HUVEC): < 4.00
- MIC (Candida albicans [3]): 2.2 µM (≈ 0.897 µg/mL)
- pIC50 (A549 [4]): 5.07
- pIC50 (CCRF-CEM): 4.68
- pIC50 (MCF7 [5]): 4.72
- Ratio IC50 (A549 [10]): >10
- pIC50 (MDA-MB-231): 4.46

Compound: CC(C)(C)CC(C)(C)c1ccc(OCCOP(=O)([O-])OCCC[N+](C)(C)Cc2ccccc2)cc1
- pIC50 (HeLa): < 4.00
- MTC (Acanthamoeba lugdunensis [1]): 250 µM
- MTC (Acanthamoeba quina [2]): 125 µM
- pIC50 (HUVEC): < 4.00
- MIC (Candida albicans [3]): > 100 µM
- pIC50 (A549 [4]): < 4.00
- pIC50 (CCRF-CEM): < 4.00
- pIC50 (MCF7 [5]): < 4.00
- pIC50 (MDA-MB-231): < 4.00

Compound: CCCCCCCCCCCCCCCCOP(=O)([O-])OCCC[N+](C)(C)Cc1ccccc1
- pIC50 (HeLa): 4.21
- MTC (Acanthamoeba lugdunensis [1]): 125 µM
- MTC (Acanthamoeba quina [2]): 250 µM
- pIC50 (HUVEC): < 4.00
- MIC (Candida albicans [3]): 7.9 µM (≈ 3.93 µg/mL)
- pIC50 (A549 [4]): 4.24
- pIC50 (CCRF-CEM): 4.21
- pIC50 (MCF7 [5]): 4.24
- pIC50 (MDA-MB-231): 4.36

Compound: CCCCCCCCCCCCCCCC[N+](C)(C)Cc1ccccc1.[Br-]
- pIC50 (HeLa): 5.55
- Ratio (Candida albicans [11]): 2
- MTC (Acanthamoeba lugdunensis [1]): 15.6 µM
- MTC (Acanthamoeba quina [2]): 15.6 µM
- pIC50 (HUVEC): 5.12
- MIC (Candida albicans [3]): 4.5 µM
- pIC50 (A549 [4]): 6.20
- pIC50 (CCRF-CEM): 6.05
- pIC50 (MCF7 [5]): 6.00
- Ratio IC50 (A549 [10]): >10
- pIC50 (MDA-MB-231): 5.46
